Reference: paper PMC12337661, “PIEZO1 mechanical insensitivity in generalized lymphatic dysplasia with the potential for pharmacological rescue” (iScience, 2025)
Values joined by “and” are separate entries in the source; they are usually repeats but may differ in a detail not shown here. Identical values can stand only once.

How the values were obtained:
Assay in all cases: Outside-out patch recording with pressure pulses;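 on Mean (pressure-response, Figure 5f): peak current normalised to each patch's maximum peak current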;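 on Pressure-response, individual cells (Figure 5f): peak current normalised to each patch's maximum peak current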
Format in all cases: cell-based
[1] = target: T1, G1994D mPIEZO1 (Mus musculus, UniProt E2JF22, G1994D); settings: for Currents at given pressure / Pressure-response, individual cells (Figure 5f) / Mean (pressure-response, Figure 5f): G1994D + Yoda1; for Pressure-response, individual cells (Figure 5f): cell1-cell10; for Mean (pressure-response, Figure 5f): mean of cells 1-10;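 on Mean (pressure-response, Figure 5f): peak current normalised to each patch's maximum peak current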;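 on Pressure-response, individual cells (Figure 5f): peak current normalised to each patch's maximum peak current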
T1 construct: expressed in transfected cells
Procedure: (§1) Ionic currents were recorded through outside-out patches from cells using standard patch-clamp techniques in voltage-clamp mode. Patch pipettes were fire-polished and had resistance of 4–7 MΩ when filled with pipette solution. Ionic solution of composition (mM) NaCl 140, HEPES 10 and EGTA 5 (titrated to pH 7.4 using NaOH) was used in both the pipette and bath. Recordings were at a constant holding potential of −80 mV. 200-ms pressure steps were applied to the patch pipette with an interval of 12 s using High Speed Pressure Clamp HSPC-1 System (ALA Scientific Instruments, USA). All recordings were made with an Axopatch-200B amplifier (Axon Instruments, Inc., USA) equipped with Digidata 1550B and pClamp (v10.6) software (Molecular Devices, USA) at room temperature (21 ± 2°C). Currents were filtered at 2–5 kHz and digitally sampled at 5–20 kHz.

[2] = target: T2, I2286T mPIEZO1 (Mus musculus, UniProt E2JF22, I2286T); settings: 5 μM; for current (example trace): 75 mmHg pulses
T2 construct: expressed in transfected cells
Procedure: as §1

[3] = target: T3, R2351Q mPIEZO1 (Mus musculus, UniProt E2JF22, R2351Q)
T3 construct: expressed in transfected cells
Procedure: as §1

T2 sequence (E2JF22 whole entry I2286T): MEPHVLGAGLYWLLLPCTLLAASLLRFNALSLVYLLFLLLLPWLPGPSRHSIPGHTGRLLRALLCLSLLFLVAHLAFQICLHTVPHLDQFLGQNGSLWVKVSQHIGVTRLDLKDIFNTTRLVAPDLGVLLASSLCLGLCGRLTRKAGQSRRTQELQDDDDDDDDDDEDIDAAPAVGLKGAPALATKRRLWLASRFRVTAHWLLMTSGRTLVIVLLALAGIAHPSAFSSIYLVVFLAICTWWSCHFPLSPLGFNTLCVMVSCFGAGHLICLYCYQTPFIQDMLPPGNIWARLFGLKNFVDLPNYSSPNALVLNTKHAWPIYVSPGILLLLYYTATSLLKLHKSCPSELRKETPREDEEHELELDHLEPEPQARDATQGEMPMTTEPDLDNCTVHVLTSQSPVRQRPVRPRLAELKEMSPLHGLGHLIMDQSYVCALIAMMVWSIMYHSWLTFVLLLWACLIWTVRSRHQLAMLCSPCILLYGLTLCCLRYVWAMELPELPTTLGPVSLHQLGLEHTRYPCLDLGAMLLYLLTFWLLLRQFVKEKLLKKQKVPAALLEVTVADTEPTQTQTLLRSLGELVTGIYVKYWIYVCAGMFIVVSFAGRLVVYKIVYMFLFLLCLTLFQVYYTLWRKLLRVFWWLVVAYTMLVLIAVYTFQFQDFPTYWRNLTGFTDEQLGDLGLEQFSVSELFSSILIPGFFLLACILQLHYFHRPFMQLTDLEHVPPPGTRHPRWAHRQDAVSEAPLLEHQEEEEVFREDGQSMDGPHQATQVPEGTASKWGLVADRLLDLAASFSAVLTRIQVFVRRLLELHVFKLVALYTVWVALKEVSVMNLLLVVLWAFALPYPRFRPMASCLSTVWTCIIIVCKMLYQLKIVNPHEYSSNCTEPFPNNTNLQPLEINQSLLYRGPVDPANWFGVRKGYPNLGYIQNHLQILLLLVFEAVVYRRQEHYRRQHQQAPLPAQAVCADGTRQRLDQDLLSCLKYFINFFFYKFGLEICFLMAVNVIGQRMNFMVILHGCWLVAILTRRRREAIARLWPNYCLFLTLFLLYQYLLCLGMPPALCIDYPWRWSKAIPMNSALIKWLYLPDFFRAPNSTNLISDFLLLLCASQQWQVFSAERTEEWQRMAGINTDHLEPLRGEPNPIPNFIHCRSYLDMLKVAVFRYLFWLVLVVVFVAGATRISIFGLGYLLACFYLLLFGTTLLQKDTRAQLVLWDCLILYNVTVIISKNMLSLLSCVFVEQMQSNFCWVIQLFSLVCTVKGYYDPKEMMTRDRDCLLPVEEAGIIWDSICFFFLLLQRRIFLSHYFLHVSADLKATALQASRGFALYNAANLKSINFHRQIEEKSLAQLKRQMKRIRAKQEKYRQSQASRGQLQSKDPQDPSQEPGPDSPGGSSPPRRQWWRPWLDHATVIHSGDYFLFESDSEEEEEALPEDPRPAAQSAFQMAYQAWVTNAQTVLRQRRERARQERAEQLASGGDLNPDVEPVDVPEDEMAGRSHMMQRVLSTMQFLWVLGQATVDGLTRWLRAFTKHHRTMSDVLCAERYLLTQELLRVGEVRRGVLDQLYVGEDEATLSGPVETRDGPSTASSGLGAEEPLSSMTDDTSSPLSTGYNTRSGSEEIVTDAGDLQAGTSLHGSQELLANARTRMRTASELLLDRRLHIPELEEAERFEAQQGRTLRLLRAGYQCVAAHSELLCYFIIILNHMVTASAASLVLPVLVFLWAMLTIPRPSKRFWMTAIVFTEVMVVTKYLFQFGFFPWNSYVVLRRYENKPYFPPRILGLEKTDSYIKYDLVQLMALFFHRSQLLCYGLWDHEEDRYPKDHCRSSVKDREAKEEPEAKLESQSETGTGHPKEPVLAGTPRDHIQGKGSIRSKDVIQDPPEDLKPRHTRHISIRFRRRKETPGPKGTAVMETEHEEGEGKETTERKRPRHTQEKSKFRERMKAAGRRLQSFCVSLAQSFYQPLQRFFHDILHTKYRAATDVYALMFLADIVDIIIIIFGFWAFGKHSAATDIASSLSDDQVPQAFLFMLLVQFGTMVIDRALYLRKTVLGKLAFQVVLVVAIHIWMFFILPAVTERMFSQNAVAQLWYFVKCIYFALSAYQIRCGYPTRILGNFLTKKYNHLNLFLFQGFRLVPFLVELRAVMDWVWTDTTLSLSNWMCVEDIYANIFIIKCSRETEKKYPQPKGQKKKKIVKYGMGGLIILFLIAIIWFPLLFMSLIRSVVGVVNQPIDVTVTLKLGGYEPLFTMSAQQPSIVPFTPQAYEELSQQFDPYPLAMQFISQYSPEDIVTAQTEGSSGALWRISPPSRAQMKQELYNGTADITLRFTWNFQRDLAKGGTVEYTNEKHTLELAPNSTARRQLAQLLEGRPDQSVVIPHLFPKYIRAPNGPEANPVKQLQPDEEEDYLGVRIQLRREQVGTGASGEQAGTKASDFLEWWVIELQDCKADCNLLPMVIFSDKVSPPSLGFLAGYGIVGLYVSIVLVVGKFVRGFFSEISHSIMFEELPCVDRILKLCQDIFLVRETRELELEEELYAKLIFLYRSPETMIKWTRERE
T1 sequence (E2JF22 whole entry G1994D): as the sequence (E2JF22 whole entry I2286T) above, with G1994D, T2286I counted along it
T3 sequence (E2JF22 whole entry R2351Q): as the sequence (E2JF22 whole entry I2286T) above, with T2286I, R2351Q counted along it

Currents at given pressure ([1]; 0 mmHg, time 200.1 ms): -1.831 pA | Currents at given pressure ([1]; 0 mmHg, time 200.15 ms): 0.2743 pA | Currents at given pressure ([1]; 0 mmHg, time 200.2 ms): -1.526 pA | Currents at given pressure ([1]; 15 mmHg, time 200.1 ms): 1.03 pA | Currents at given pressure ([1]; 15 mmHg, time 200.15 ms): -0.5571 pA | Currents at given pressure ([1]; 15 mmHg, time 200.2 ms): -0.1298 pA | Currents at given pressure ([1]; 30 mmHg, time 200.1 ms): -11.9666 pA | Currents at given pressure ([1]; 30 mmHg, time 200.15 ms): -9.769 pA | Currents at given pressure ([1]; 30 mmHg, time 200.2 ms): -5.161 pA | Currents at given pressure ([1]; 45 mmHg, time 200.1 ms): -2.0839 pA | Currents at given pressure ([1]; 45 mmHg, time 200.15 ms): -0.6801 pA | Currents at given pressure ([1]; 45 mmHg, time 200.2 ms): -0.497 pA | Currents at given pressure ([1]; 60 mmHg, time 200.1 ms): 1.1543 pA | Currents at given pressure ([1]; 60 mmHg, time 200.15 ms): -0.9209 pA | Currents at given pressure ([1]; 60 mmHg, time 200.2 ms): -0.8599 pA | Currents at given pressure ([1]; 75 mmHg, time 200.1 ms): -0.6364 pA | Currents at given pressure ([1]; 75 mmHg, time 200.15 ms): 0.6148 pA | Currents at given pressure ([1]; 75 mmHg, time 200.2 ms): 0.06549 pA | Currents at given pressure ([1]; 90 mmHg, time 200.1 ms): -1.92 pA | Currents at given pressure ([1]; 90 mmHg, time 200.15 ms): -2.409 pA | Currents at given pressure ([1]; 90 mmHg, time 200.2 ms): -0.1504 pA | Currents at given pressure ([1]; 105 mmHg, time 200.1 ms): -0.4419 pA | Currents at given pressure ([1]; 105 mmHg, time 200.15 ms): -1.449 pA | Currents at given pressure ([1]; 105 mmHg, time 200.2 ms): 0.2905 pA | Mean (pressure-response, Figure 5f) ([1]; pressure 0 mmHg): -1.26E-17 | Mean (pressure-response, Figure 5f) ([1]; pressure 15 mmHg): 0.03249 | Mean (pressure-response, Figure 5f) ([1]; pressure 30 mmHg): 0.03984 | pressure for 50% activation (P50), Boltzmann mid-point ([1]; in 5 μM Yoda1, -80 mV): 64.0 mmHg | mechanical activation in the presence of the compound ([2]; 75 mmHg pressure pulses): pressure-evoked current now occurred | current (example trace) ([2]; time 30.5 ms): -0.41 pA | current (example trace) ([2]; time 30.5002 ms): -0.2269 pA | current (example trace) ([2]; time 30.5004 ms): -0.5932 pA | maximum amplitude of current evoked by the pressure pulse, Mean ([2]; 75 mmHg, -80 mV, n = 7): -80.8694 pA | currents at given condition, Mean ([3]; R2351Q, Yoda1, mean of 7 cells, Figure 4e): -52.7493 pA
Compound: Clc1cccc(Cl)c1CSc1nnc(-c2cnccn2)s1 [Yoda1]
Pressure-response, individual cells (Figure 5f) ([1]; pressure 0 mmHg): 1.59E-17 and -8.38E-17 and 0 (4×) and -2.96E-17 and -2.69E-17 and -3.91E-17 and 3.74E-17 | Pressure-response, individual cells (Figure 5f) ([1]; pressure 15 mmHg): 0.08197 and 0.01125 and 0.01265 and 0.01555 and 0.01655 and 0.00717 and 0.01084 and 0.05939 and 0.00309 and 0.1064 | Pressure-response, individual cells (Figure 5f) ([1]; pressure 30 mmHg): 0.03806 and -0.00981 and 0.03807 and 0.05062 and 0.03544 and 0.00903 and 0.00593 and 0.02358 and 0.08822 and 0.1193 | mechanical activation in the presence of the compound ([3]; 5 μM, 75 mmHg pressure pulses): robust mechanical activation of the variant channels | currents at given condition, individual cells (cell1-cell7) ([3]; R2351Q, Yoda1, Figure 4e): -87.925 pA and -24.5178 pA and -36.1129 pA and -20.7822 pA and -20.109 pA and -65.4339 pA and -114.364 pA
